Measurements as given in the supplement of paper PMC10331698.
± gives the standard deviation of the averaged measurements.

Assays:
Assay in all cases: level (log10 ratio to DMSO vehicle control); higher = higher biomarker level / cell amount than vehicle control
[1] = compound: CCOC(=O)CC(=O)C(F)(F)C(F)(F)F [Ethyl pentafluoropropionyl acetate] (in DMSO)
Protocol: (§1)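 BioMAP Diversity Plus panel of 12 human primary cell co-culture systems (3C, 4H, LPS, SAg, BT, BF4T, BE3C, CASM3C, HDF3CGF, KF3CT, MyoF, Mphg). Compounds were added 1 h before stimulation and left for 24 h (MyoF 48 h; BT 72 h for soluble read-outs or 6 d for IgG). Biomarkers were read by ELISA, cytotoxicity by SRB, PBMC viability and proliferation by Alamar Blue. Each well value was divided by the mean of 8 DMSO control wells on the same plate and log10 transformed; duplicate blinded samples were tested at 4 concentrations.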

[2] = compound: O=C(O)C(F)(OC(F)(F)C(F)(F)C(F)(F)F)C(F)(F)F [Ammonium perfluoro-2-methyl-3-oxahexanoate] (in Water)
Protocol: as §1

[3] = compound: CN(C(=O)C(F)(F)C(F)(F)C(F)(F)F)[Si](C)(C)C [N-Methyl-N-trimethylsilylheptafluorobutyramide] (in DMSO)
Protocol: as §1

[4] = compound: O=C(O)CCC(F)(C(F)(F)F)C(F)(F)F [4,4-bis(Trifluoromethyl)-4-fluoropropanoic acid] (in DMSO)
Protocol: as §1

[5] = compound: OCC(F)(F)OC(F)(F)C(F)(F)OC(F)(F)C(F)(F)OC(F)(F)CO [1H,1H,11H,11H-Perfluorotetraethylene glycol] (in DMSO)
Protocol: as §1

Perfluorononanoic acid = compound: O=C(O)C(F)(F)C(F)(F)C(F)(F)C(F)(F)C(F)(F)C(F)(F)C(F)(F)C(F)(F)F [Perfluorononanoic acid] (in DMSO)
Protocol: as §1

Test System	level (log10) ([1]; 6700 nM)	level (log10) ([1]; 20000 nM)	level (log10) ([1]; 60000 nM)	level (log10) ([2]; 6700 nM)	level (log10) ([2]; 20000 nM)	level (log10) ([2]; 60000 nM)	level (log10) ([3]; 6700 nM)	level (log10) ([3]; 20000 nM)	level (log10) ([3]; 60000 nM)	level (log10) ([4]; 6700 nM)	level (log10) ([4]; 20000 nM)	level (log10) ([4]; 60000 nM)	level (log10) ([5]; 6700 nM)	level (log10) ([5]; 20000 nM)	level (log10) ([5]; 60000 nM)	level (log10) (Perfluorononanoic acid; 6700 nM)	level (log10) (Perfluorononanoic acid; 20000 nM)
BE3C:CXCL10/IP-10	-0.004 ± 0.011	-0.013 ± 0.0028	-0.008 ± 0.0042	-0.0095 ± 0.013	-0.001 ± 0.0042	0.0115 ± 0.0092	-0.006 ± 0.0028	0.005 ± 0.0014	0.007 ± 0.011	0.006 ± 0.034	0.0035 ± 0.023	-0.0045 ± 0.0035	-0.012 ± 0.0028	-0.0315 ± 0.021	-0.167 ± 0.028	-0.039 ± 0.025	-0.145 ± 0.031
BE3C:CXCL11/I-TAC	0.002 ± 0.028	0.002 ± 0.0099	-0.0015 ± 0.0078	-0.011 ± 0.0057	0.0115 ± 0.0021	-0.0045 ± 0.0078	-0.01 ± 0.0071	0.003 ± 0.014	0.012 ± 0.031	0.0195 ± 0.016	0.0015 ± 0.012	-0.006 ± 0.0099	-0.0135 ± 0.0021	-0.03 ± 0.0028	-0.092 ± 0.028	-0.01 ± 0.016	-0.0315 ± 0.044
BE3C:EGFR	-0.006 ± 0.0099	0.0025 ± 0.005	-0.006 ± 0.023	-0.016 ± 0.023	-0.009 ± 0.0085	0.005 ± 0.0057	-0.0065 ± 0.00071	-0.0165 ± 0.013	-0.01 ± 0.028	0.003 ± 0.02	-0.0105 ± 0.018	-0.012 ± 0.014	0.0055 ± 0.011	-0.0005 ± 0.0078	-0.034 ± 0.0014	-0.023 ± 0.028	-0.0285 ± 0.03
BE3C:HLA-DR	0.014 ± 0.023	-0.006 ± 0.0014	-0.0005 ± 0.005	-0.022 ± 0.013	-0.0015 ± 0.018	-0.0265 ± 0.0021	-0.009 ± 0.0014	-0.0105 ± 0.0021	0.009 ± 0.033	-0.011	-0.0125 ± 0.005	0.0065 ± 0.029	-0.03 ± 0.011	-0.016 ± 0.0014	-0.163 ± 0.013	-0.039 ± 0.064	-0.066 ± 0.02
BE3C:IL-1alpha	0.0125 ± 0.03	-0.011 ± 0.044	0.0285 ± 0.005	-0.0215 ± 0.013	-0.001 ± 0.0028	-0.0085 ± 0.005	0.0045 ± 0.005	-0.0075 ± 0.019	0.032 ± 0.014	0.0065 ± 0.022	-0.0105 ± 0.0078	0.007 ± 0.02	-0.001 ± 0.024	-0.0185 ± 0.0035	-0.0065 ± 0.057	-0.032 ± 0.024	-0.0625 ± 0.023
BF4T:CCL2/MCP-1	-0.006 ± 0.011	-0.0145 ± 0.00071	-0.0015 ± 0.0078	0.007 ± 0.031	0.005 ± 0.048	0.0285 ± 0.021	0.002 ± 0.0014	0.002 ± 0.0042	0.018 ± 0.018	0.016 ± 0.0028	0.026 ± 0.018	0.0015 ± 0.016	-0.0295 ± 0.012	-0.119 ± 0.016	-0.227 ± 0.013	-0.0115 ± 0.029	-0.154 ± 0.026
BF4T:CCL26/Eotaxin-3	0.014 ± 0.0014	0.003 ± 0.014	0.0015 ± 0.03	-0.128 ± 0.03	-0.0995 ± 0.06	-0.137 ± 0.03	-0.0025 ± 0.035	-0.0135 ± 0.015	0.0045 ± 0.0078	0.028 ± 0.024	0.004 ± 0.0028	0.0185 ± 0.042	0.0395 ± 0.025	-0.013 ± 0.021	-0.0675 ± 0.0064	-0.0345 ± 0.037	-0.288 ± 0.0085
BF4T:CD54/ICAM-1	-0.0075 ± 0.0064	-0.003 ± 0.014	-0.02 ± 0.0071	-0.0155 ± 0.012	-0.0265 ± 0.016	-0.0075 ± 0.0021	-0.0145 ± 0.0064	-0.0045 ± 0.023	-0.0115 ± 0.00071	0.0175 ± 0.013	0.006 ± 0.0071	0.002 ± 0.013	-0.002 ± 0.023	-0.03 ± 0.0014	-0.0815 ± 0.0064	-0.0035 ± 0.021	-0.05 ± 0.014
BF4T:CD90	-0.009 ± 0.018	-0.0015 ± 0.013	-0.0135 ± 0.012	-0.0065 ± 0.011	-0.015 ± 0.011	-0.007 ± 0.024	-0.0225 ± 0.022	-0.006 ± 0.0071	0.0065 ± 0.005	-0.0095 ± 0.026	-0.0055 ± 0.019	0.0005 ± 0.0078	-0.005 ± 0.0042	-0.03 ± 0.0014	-0.071 ± 0.0085	-0.0095 ± 0.0035	-0.045 ± 0.0028
BF4T:CD106/VCAM-1	-0.0035 ± 0.016	0.0155 ± 0.013	-0.037 ± 0.031	-0.0735 ± 0.039	-0.018 ± 0.0085	-0.008 ± 0.0014	0.0095 ± 0.025	0.0315 ± 0.015	0.0035 ± 0.026	0.018 ± 0.011	-0.011 ± 0.031	-0.0445 ± 0.0021	0.0765 ± 0.0092	-0.018 ± 0.037	-0.0835 ± 0.043	-0.084 ± 0.086	-0.129 ± 0.035
BF4T:CXCL8/IL-8	0.0095 ± 0.012	-0.0015 ± 0.023	0.021 ± 0.011	-0.0135 ± 0.036	0.0295 ± 0.028	0.0255 ± 0.03	-0.008 ± 0.024	-0.0025 ± 0.018	0.0025 ± 0.019	-0.0085 ± 0.03	0.028 ± 0.028	0.0115 ± 0.0021	-0.0155 ± 0.026	-0.0265 ± 0.026	-0.0245 ± 0.03	0.048 ± 0.0028	0.0165 ± 0.00071
BF4T:IL-1alpha	0.017 ± 0.021	0.0035 ± 0.018	0.0315 ± 0.0035	0.018 ± 0.03	0.0055 ± 0.036	-0.0085 ± 0.021	-0.015 ± 0.016	-0.0135 ± 0.016	0.015 ± 0.042	-0.0005 ± 0.0092	-0.0135 ± 0.019	0.003 ± 0.031	0.0095 ± 0.012	-0.002 ± 0.025	0.003 ± 0.051	-0.043 ± 0.0099	-0.029 ± 0.025
BF4T:Keratin 8/18	0.0085 ± 0.005	0.0275 ± 0.052	0.002 ± 0.016	-0.0205 ± 0.0078	-0.008 ± 0.035	-0.022 ± 0.014	-0.0105 ± 0.052	0.0115 ± 0.03	0.013 ± 0.017	-0.0015 ± 0.0064	-0.032 ± 0.051	-0.0015 ± 0.03	-0.0025 ± 0.012	-0.005 ± 0.0057	-0.0335 ± 0.015	-0.0155 ± 0.016	0.0075 ± 0.023
BF4T:MMP-1	-0.0045 ± 0.03	-0.0005 ± 0.018	0.0155 ± 0.0035	0.031 ± 0.02	0.0105 ± 0.023	0.029 ± 0.011	-0.0105 ± 0.04	-0.0105 ± 0.054	0.0005 ± 0.018	-0.0025 ± 0.012	-0.0015 ± 0.00071	-0.004 ± 0.013	-0.0025 ± 0.016	0.0005 ± 0.018	0.0065 ± 0.046	-0.012 ± 0.028	0.0095 ± 0.016
BF4T:MMP-3	0.0105 ± 0.029	-0.012 ± 0.047	-0.0025 ± 0.052	0.0335 ± 0.047	0.018 ± 0.0057	0.048 ± 0.014	-0.016 ± 0.031	-0.008 ± 0.011	0 ± 0.017	0.0295 ± 0.022	0.0285 ± 0.00071	0.031 ± 0.052	0.0035 ± 0.016	0.012 ± 0.0028	-0.011 ± 0.013	0.0005 ± 0.035	0.015 ± 0.0071
BF4T:MMP-9	0.002 ± 0.038	-0.007 ± 0.044	-0.007 ± 0.044	0.0275 ± 0.005	0.047 ± 0.017	0.075 ± 0.013	-0.0305 ± 0.064	-0.012 ± 0.033	0.0095 ± 0.023	0.0265 ± 0.042	0.0145 ± 0.022	0.015 ± 0.042	-0.007 ± 0.013	-0.004 ± 0.013	-0.0405 ± 0.033	-0.034 ± 0.038	-0.032 ± 0.0042
BF4T:PAI-I	0.0015 ± 0.011	0.004 ± 0.011	-0.0025 ± 0.011	-0.004 ± 0.0028	0.001 ± 0.0042	0.005 ± 0.0028	0.0055 ± 0.04	-0.007 ± 0.017	0.0025 ± 0.0064	-0.002 ± 0.014	-0.01 ± 0.013	0.008 ± 0.011	-0.0035 ± 0.0092	-0.0335 ± 0.00071	-0.069 ± 0.016	-0.0145 ± 0.03	-0.007 ± 0.028
